In ChEMBL document CHEMBL1149301, “Benzoyl ring halogenated classical 2-amino-6-methyl-3,4-dihydro-4-oxo-5-substituted thiobenzoyl-7H-pyrrolo[2,3-d]pyrimidine antifolates as inhibitors of thymidylate synthase and as antitumor agents” (J Med Chem, 2004):

Assays:
Thymidylate synthase [1] = target: Thymidylate synthase (Escherichia coli, UniProt C3SWJ7); test: Inhibition of Escherichia coli thymidylate synthase
CCRF-CEM [2] = test: Growth inhibition of human CCRF-CEM cells; assay type: functional, cell-based
R2 = test: Growth inhibition of MTX-resistant human CCRF-CEM R2 cells; assay type: functional, cell-based
CCRF-CEM [3] = test: Growth inhibition of MTX-resistant human CCRF-CEM R30dm cells; assay type: functional, cell-based
CCRF-CEM [4] = test: Growth inhibition of human CCRF-CEM leukemia cells at 2400 nM relative to leucovorin; assay type: functional
[5] = Cytotoxicity against human EKVX cells; assay type: cell-based
[6] = Cytotoxicity against HCC2998 cells; assay type: cell-based, HCC 2998; details: human
SF-268 = test: Cytotoxicity against SF268 cells; assay type: functional; details: Homo sapiens
[7] = Cytotoxicity against NCI/ADR-RES cells; assay type: cell-based; details: human
[8] = Cytotoxicity against BT549 cells; assay type: cell-based, BT-549; details: human
[9] = target: T1, Folylpolyglutamate synthase, mitochondrial (Homo sapiens) (UniProt Q05932); test: Ratio of relative Vmax to Km of human recombinant FPGS
T1 sequence (whole entry): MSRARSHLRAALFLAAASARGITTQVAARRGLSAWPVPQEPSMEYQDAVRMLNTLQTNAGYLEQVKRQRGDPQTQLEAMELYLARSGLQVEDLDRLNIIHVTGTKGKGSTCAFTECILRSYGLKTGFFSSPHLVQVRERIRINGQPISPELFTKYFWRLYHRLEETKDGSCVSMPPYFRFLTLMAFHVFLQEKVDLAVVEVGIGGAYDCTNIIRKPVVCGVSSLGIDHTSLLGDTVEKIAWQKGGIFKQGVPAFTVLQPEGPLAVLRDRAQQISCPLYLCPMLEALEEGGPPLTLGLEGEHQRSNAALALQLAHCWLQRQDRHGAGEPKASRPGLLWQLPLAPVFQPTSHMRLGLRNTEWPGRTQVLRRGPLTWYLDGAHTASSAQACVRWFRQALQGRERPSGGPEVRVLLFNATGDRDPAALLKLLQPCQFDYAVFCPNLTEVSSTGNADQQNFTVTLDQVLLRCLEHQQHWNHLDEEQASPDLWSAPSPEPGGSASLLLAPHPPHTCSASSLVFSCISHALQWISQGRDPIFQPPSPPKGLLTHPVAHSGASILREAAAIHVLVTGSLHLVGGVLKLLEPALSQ

Thymidylate synthase [10] = target: Thymidylate synthase (Homo sapiens, UniProt P04818)
Chain of Thymidylate synthase (Homo sapiens, UniProt P04818) (P04818 whole entry): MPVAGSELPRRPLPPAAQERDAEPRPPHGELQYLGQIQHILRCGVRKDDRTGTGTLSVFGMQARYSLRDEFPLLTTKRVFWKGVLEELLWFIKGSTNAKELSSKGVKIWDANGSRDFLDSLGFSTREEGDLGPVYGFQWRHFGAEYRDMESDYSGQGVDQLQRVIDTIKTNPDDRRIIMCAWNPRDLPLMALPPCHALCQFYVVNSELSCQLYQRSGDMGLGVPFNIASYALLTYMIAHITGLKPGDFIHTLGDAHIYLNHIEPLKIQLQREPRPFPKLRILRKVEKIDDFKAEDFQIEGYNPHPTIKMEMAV
Description: Inhibition of human thymidylate synthase

Dihydrofolate reductase [11] = target: T2, Dihydrofolate reductase (Homo sapiens, UniProt P00374)
T2 sequence (P00374 whole entry): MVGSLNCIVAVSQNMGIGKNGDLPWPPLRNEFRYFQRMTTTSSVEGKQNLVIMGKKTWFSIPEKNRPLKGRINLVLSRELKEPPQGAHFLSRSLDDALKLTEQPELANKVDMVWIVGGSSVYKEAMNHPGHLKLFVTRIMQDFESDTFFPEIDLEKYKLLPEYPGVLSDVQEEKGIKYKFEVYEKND

Dihydrofolate reductase [12] = target: T3, Dihydrofolate reductase (Escherichia coli, UniProt P0ABQ4)
T3 sequence (P0ABQ4 whole entry): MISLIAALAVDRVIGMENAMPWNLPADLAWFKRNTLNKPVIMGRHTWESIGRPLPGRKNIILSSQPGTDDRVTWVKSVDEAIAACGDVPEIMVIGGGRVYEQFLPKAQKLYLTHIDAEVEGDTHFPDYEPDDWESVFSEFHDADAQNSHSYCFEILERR
Description: Inhibition of Escherichia coli DHFR

R1 = test: Growth inhibition of MTX-resistant human CCRF-CEM R1 cells overexpressing DHFR
CCRF-CEM [13] = test: Growth inhibition of human CCRF-CEM leukemia cells at 5000 nM relative to leucovorin; assay type: functional
[14] = Cytotoxicity against human CCRF-CEM leukemia cells; assay type: cell-based
CCRF-CEM [15] = test: Protection against 40 nM methotrexate-induced growth inhibition of human CCRF-CEM leukemia cells at 5 uM relative to control; assay type: functional; set-up: scale not given: the % may be the effect or the level left
CCRF-CEM [16] = test: Protection against 5000 nM N-[4-[(2-amino-6-methyl-3,4-dihydro-4-oxo-7H-pyrrolo[2,3-d]pyrimidin-5-yl)thio]-2fluorobenzoyl]-L-glutamic acid-induced growth inhibition of human CCRF-CEM cells at 5 uM relative to control; assay type: functional; set-up: scale not given: the % may be the effect or the level left
CCRF-CEM [17] = test: Protection against 2400 nM N-[4-[(2-amino-6-methyl-3,4-dihydro-4-oxo-7H-pyrrolo[2,3-d]pyrimidin-5-yl)thio]-2chlorobenzoyl]-L-glutamic acid-induced growth inhibition of human CCRF-CEM cells at 5 uM relative to control; assay type: functional; set-up: scale not given: the % may be the effect or the level left
CCRF-CEM [18] = test: Growth inhibition of human CCRF-CEM cells by thymidine at 5 uM relative to control; set-up: scale not given: the % may be the effect or the level left
CCRF-CEM [19] = test: Protection against methotrexate-induced effect in human CCRF-CEM cells assessed as growth inhibition at 0.1 mM; assay type: functional; set-up: scale not given: the % may be the effect or the level left
CCRF-CEM [20] = test: Protection against compound 4- or 5-induced effect in human CCRF-CEM cells assessed as growth inhibition at […]; set-up: scale not given: the % may be the effect or the level left
[21] = substrate: Cc1[nH]c2nc(N)[nH]c(=O)c2c1Sc1ccc(C(=O)N[C@@H](CCC(=O)O)C(=O)O)c(Cl)c1; test: (§1) Activity of human recombinant FPGS
[22] = substrate: Cc1[nH]c2nc(N)[nH]c(=O)c2c1Sc1ccc(C(=O)N[C@@H](CCC(=O)O)C(=O)O)c(F)c1; test: as §1
[23] = substrate: Nc1nc(N)c2nc(CNc3ccc(C(=O)N[C@@H](CCC(=O)O)C(=O)O)cc3)cnc2n1; test: as §1
[24] = substrate: Cc1[nH]c2nc(N)[nH]c(=O)c2c1Sc1ccc(C(=O)N[C@@H](CCC(=O)O)C(=O)O)c(Cl)c1; test: (§2) Activity of human recombinant FPGS relative to AMT
[25] = substrate: Cc1[nH]c2nc(N)[nH]c(=O)c2c1Sc1ccc(C(=O)N[C@@H](CCC(=O)O)C(=O)O)c(F)c1; test: as §2

Chain of Thymidylate synthase (Escherichia coli, UniProt C3SWJ7) (C3SWJ7 whole entry): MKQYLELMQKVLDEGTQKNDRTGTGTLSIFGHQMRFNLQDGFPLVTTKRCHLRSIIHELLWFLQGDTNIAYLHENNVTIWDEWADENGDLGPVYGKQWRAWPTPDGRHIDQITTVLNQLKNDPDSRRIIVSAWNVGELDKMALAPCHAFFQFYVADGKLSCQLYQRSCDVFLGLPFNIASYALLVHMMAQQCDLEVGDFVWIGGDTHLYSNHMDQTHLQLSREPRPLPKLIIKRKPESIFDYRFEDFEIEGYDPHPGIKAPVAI

Molecule `Cc1[nH]c2nc(N)[nH]c(=O)c2c1Sc1ccc(C(=O)N[C@@H](CCC(=O)O)C(=O)O)c(Cl)c1` has an IC50 (Thymidylate synthase [1]) of 5.1 µM, an EC50 (CCRF-CEM [2]) of 0.69 µM and an EC50 (R2) of 12 µM. The EC50 (CCRF-CEM [3]) was 1.2 µM, the inhibition at 2.4 µM (CCRF-CEM [4]) was 11% and the GI50 [5] was 0.758 µM. It also gave a GI50 [6] of 1.48 µM, a GI50 (SF-268) of 7.44 µM and a GI50 [7] of 8.54 µM. It also gave a GI50 [8] of under 0.01 µM, a Ratio [9] of 0 and an IC50 (Thymidylate synthase [10]) of 0.051 µM. For the same molecule, the IC50 (Dihydrofolate reductase [11]) was 11 µM, the IC50 (Dihydrofolate reductase [12]) was 40 µM and the EC50 (R1) was 1.9 µM.

`Nc1nc(N)c2nc(CNc3ccc(C(=O)N[C@@H](CCC(=O)O)C(=O)O)cc3)cnc2n1` showed a Ratio [9] of 0.23.

Work on `Cc1[nH]c2nc(N)[nH]c(=O)c2c1Sc1ccc(C(=O)N[C@@H](CCC(=O)O)C(=O)O)c(F)c1` yielded an IC50 (Thymidylate synthase [1]) of 0.72 µM, an EC50 (CCRF-CEM [2]) of 0.215 µM and an EC50 (R2) of 2.45 µM. For the same molecule, the EC50 (CCRF-CEM [3]) was 0.305 µM, the relative growth at 5 µM (CCRF-CEM [13]) was 10 and the GI50 [14] was 0.712 µM. It also gave a GI50 [5] of 6.83 µM, a GI50 [6] of under 0.01 µM and a GI50 (SF-268) of 0.347 µM. It also gave a GI50 [7] of 0.383 µM, a GI50 [8] of 2.21 µM and a Ratio [9] of 0. For the same molecule, the IC50 (Thymidylate synthase [10]) was 0.054 µM, the IC50 (Dihydrofolate reductase [11]) was 2.1 µM and the IC50 (Dihydrofolate reductase [12]) was 21 µM. For the same molecule, the EC50 (R1) was 0.505 µM.

With `CN(Cc1cnc2nc(N)nc(N)c2n1)c1ccc(C(=O)N[C@@H](CCC(=O)O)C(=O)O)cc1` [METHOTREXATE] the EC50 (R2) was 2.1 µM and the EC50 (R1) was 0.68 µM.

In the case of `Cc1cn([C@H]2C[C@H](O)[C@@H](CO)O2)c(=O)[nH]c1=O` [DOXRIBTIMINE], the Activity (CCRF-CEM [15]) is reported as 10%, the Activity (CCRF-CEM [16]) is reported as 96% and the Activity (CCRF-CEM [17]) is reported as 92%. The Activity (CCRF-CEM [18]) was 40%.

With `Cc1[nH]c2nc(N)[nH]c(=O)c2c1Sc1ccc(C(=O)N[C@@H](CCC(=O)O)C(=O)O)cc1` the IC50 (Dihydrofolate reductase [11]) was 2.1 µM and the IC50 (Dihydrofolate reductase [12]) was 21 µM.

In the case of `Nc1nc(=O)c2c([nH]1)NCC(CNc1ccc(C(=O)N[C@@H](CCC(=O)O)C(=O)O)cc1)N2C=O` (some centres not stated) [LEUCOVORIN], the Activity (CCRF-CEM [19]) is reported as 6% and the Activity (CCRF-CEM [20]) is reported as 90%.

B1: Folylpolyglutamate synthase, mitochondrial (Homo sapiens), Q05932 (protein)
chain: T1 sequence (whole entry)
B1 gave a Km [21] of under 250 µM, a Km [22] of under 250 µM and a Vmax [23] of 1. For the same molecule, the Vmax [24] was 0 and the Vmax [25] was 0.
